# Test results as given in patent US20250290915A1, “METHOD FOR PREDICTING RESPONSIVENESS TO THERAPY” (CANCERTAIN LIMITED, priority 2022, published 2025).
# Assays:
# Assay type in all cases: cell-based, human
# [1] = system: Circulating Tumour Cells (CTCs) from a patient with lung cancer (adenocarcinoma); test: Drug response score assay on CTCs (with CD45+ cells for immunotherapy) from blood, Example 5; conditions: lung cancer CTCs; for Drug sensitivity as calculated by the assay (interpretation of Drug Response Scores): Table 17
# Description: (§1) CD45^+ cells and circulating tumour cells (CTCs) were isolated from a blood sample provided by each subject.
# (§2) CD45 separation was performed by adding human CD45 microbeads (50 μl/ml blood), incubating for 15 minutes at 4° C. and then processing using an AutoMACS machine. This separates the blood sample into CD45^+ and CD45^−cells in 2 separate falcons. The falcon tubes are then centrifuged at 1200 rpm for 5 minutes.
# (§3) The supernatant was removed from the CD45^+falcon tube, and the cells resuspended in DMEM with 2 μl Cell Tox, 2 μl MT and 2 μl MT. 20 μl of the resuspended CD45^+ cells was then plated in each well which will contain an immunotherapy treatment.
# (§4) The supernatant was removed from the CD45^−falcon tube, and the CD45^−cells contacted with 100 μl of FcR block and 100 μl of CD326 (EpCAM) MicroBeads, followed by incubation at […] 4° C. for 30 minutes. The CD45^−cells were then processed using an AutoMACS machine to separate the EpCAM positive and negative cells into 2 separate falcon tubes. The EpCAM-cells were discarded. The supernatant was removed from the EpCAM^+ cells, and the cells resuspended in DMEM with 2 μl Cell Tox, 2 μl MT and 2 μl MT. 20 μl of the resuspended pellet was then added to all sample wells excluding a blank. After all wells are added to, a cell count was conducted on the […] to determine the number of circulating tumour cells (CTCs).
# (§5) The different cell types were each divided equally into populations, depending on the number of drugs/concentrations to be tested and plated on a cell-culture plate pre-coated with a scaffold of polycaprolactone (PCL) electrospun fibres and incubated at 37° C., 5% CO2, for 5 to (typically 10) minutes to facilitate cell attachment. After attachment, an initial imaging step was carried out using the RealTime-Glo™ MT assay from Promega (Catalogue No. G9711)) and the CellTox™ Green Cytotoxicity Assay (Promega, Catalogue No. G8741), carried out according to manufacturer's instructions. Following this initial imagining, the immunotherapeutic and/or chemotherapeutic agents were added to the cell populations as indicated below. After 10 minutes, the imagining step was repeated. The cell populations were then incubated at 37° C., 5% CO2 for 48 hours. The imaging step was then repeated. The cell populations were then re-dosed with the same immunotherapeutic and/or chemotherapeutic agents as indicated below, and incubated at 37° C., 5% CO2 for a further 48 hours. After this second 48 hour incubation, the imagining step was repeated for a final time.
# (§6) At the end of this culture period, dose response scores were calculated using a normalized drug response metric as described in Gupta et al. (Communications Biology volume 3, Article number: 42 (2020), https://doi.org/10.1038/s42003-020-0765-z). The start readout for a given immunotherapeutic or chemotherapeutic agent at a given concentration was the to readout for said immunotherapeutic or chemotherapeutic agent at a specified concentration. The end readout for a given immunotherapeutic or chemotherapeutic agent at a given concentration was the final timepoint reading (t96h) for said immunotherapeutic or chemotherapeutic agent at a specified concentration.
# (§7) The positive control start readout for a given drug/concentration was the to readout for the corresponding drug at a specified concentration. The positive control end readout for the corresponding drug at a specified concentration was the final timepoint reading (t96h) for the corresponding blank well.
# (§8) The negative control start and end readouts for a given immunotherapeutic or chemotherapeutic agent at a given concentration were the to and final timepoint reading (t96h) respectively for blank cell or blank immuno cell well respectively.
# (§9) The sensitivity or resistance of a subject's cancer to a given immunotherapeutic or chemotherapeutic agent was determined based on the calculated drug response score as shown in Table 2. […]
# [2] = system: cancer cells derived from the tissue sample of a patient with osteosarcoma; test: Drug response score assay on tissue sample, Example 10; set-up: key to Drug response score, conc. 1 / Drug response score, conc. 2 / Drug response score, conc. 3 / Drug response score, conc. 4: normalized drug response metric per Gupta et al. 2020; conditions: for Drug response score, conc. 1 / Drug response score, conc. 2 / Drug response score, conc. 3 / Drug response score, conc. 4: tissue sample; for Drug response score, conc. 1: conc. 1 per Table 31: Etop 1, DTIC 1.5, Ifos 0.125, Doce 0.02, Irinotecan 5 μg/ml; for Drug response score, conc. 2: conc. 2 per Table 31: Etop 4, DTIC 3, Ifos 0.25, Doce 0.2, Irinotecan 10 μg/ml; for Drug response score, conc. 3: conc. 3 per Table 31: Etop 20, DTIC 6, Ifos 5, Doce 2, Irinotecan 25 μg/ml; for Drug response score, conc. 4: conc. 4 per Table 31: Etop 100, DTIC 12, Ifos 10, Doce 10, Irinotecan 50 μg/ml
# Description: (§10) Where a tissue sample was provided by each subject, cancer stem cells (CSCs, CD133^+), were isolated from said sample. Tumour marker cells were further isolated from each tissue sample. The remaining cells were designated tumour marker^+ cells.
# (§11) First, disaggregation of the tissue samples was carried out. Disaggregation was dependent on the size of the tissue sample and the method of retrieval: • EBUS (Endobronchial Ultrasound Scan and Biopsy)—very small fragments of tissue in solution-spun at 1200 rpm for 5 minutes to collect tissue pellet • Bronchoscopy-larger fragments with larger amount of blood vessels • Broncho-lavage-similar to EBUS, spun at 1200 rpm for 5 minutes to collet tissue pellet
# (§12) Once a pellet of tissue obtained, DMEM added to the tissue pellet and the material forced through a […] Smart strainer. Once a cell suspension was achieved, this was spun at 1200 rpm for 5 minutes and the supernatant removed. The cells were then resuspended to a volume of 60 μl.
# (§13) 20 μl of FcR block and 20 μl of CD133 microbeads were added to the resuspended cells, followed by incubation for 15 minutes at 4° C. The cells were then processed using an AutoMACS machine. This separates the […] into CD133^+ and CD133^− cells in 2 separate falcons. The falcon tubes are then centrifuged at 1200 rpm for 5 minutes.
# (§14) The supernatant was removed from the CD133+falcon tube, and the cells resuspended in DMEM with 2 μl Cell Tox, 2 μl MT and 2 μl MT. 20 μl of the resuspended […] was then plated in each well which will contain an immunotherapy treatment.
# (§15) The supernatant was removed from the CD133^− falcon tube, and the CD133^− cells contacted with 40 μl of a tumour separation microbeads cocktail containing microbeads bound to anti-CD31, anti-CD45, anti-Glycophorin-A (Gly-A) and an anti-fibroblast antibody.
# (§16) This cocktail is used to separate out tumour marker cells using MACS, by separating out CD31^+, CD45^+ and Gly-A^+ cells. In addition, anti-fibroblast antibody-labelled beads are also used. The cocktail is added to the CD133^− falcon tube, followed by incubation for 15 minutes at 4° C. MACS is carried out using an AutoMACS machine. This cells which are not bound by the CD31, CD45, Gly-A and anti-fibroblast antibody beads are the tumour marker^+ cells.
# as §5
# as §6, with “The end readout for a given immunotherapeutic or chemotherapeutic agent at a given concentration was the final timepoint reading (t96h) for said immunotherapeutic or chemotherapeutic agent at a specified concentration.” left out
# [3] = system: Cancer Cells from tissue sample (CSCs, tumour marker+ cells) of a patient with GI cancer (Cholangio Carcinoma, stage 4); test: Drug response score assay on tissue sample, Example 9
# Description: as §10, §11, §12, §13, §14, §15, §16, §5
# as §6, with “The end readout for a given immunotherapeutic or chemotherapeutic agent at a given concentration was the final timepoint reading (t96h) for said immunotherapeutic or chemotherapeutic agent at a specified concentration.” left out
# [4] = system: Circulating tumour cells (CTCs) from a patient with GI cancer (Cholangio Carcinoma, stage 4); test: Drug response score assay on blood sample, Example 9
# Description: as §1, §2, §3, §4, §5, §6, §7, §8, §9
# [5] = system: Circulating Tumour Cells (CTCs) from a patient with rectal cancer (anorectal carcinoma with secondary lung cancer); test: Drug response score assay on CTCs (with CD45+ cells for immunotherapy) from blood, Example 3
# Description: as §1, §2, §3, §4, §5, §6, §7, §8, §9
compound,measurement,setting,value
C[C@@H](Oc1cc(-c2cnn(C3CCNCC3)c2)cnc1N)c1c(Cl)ccc(F)c1Cl [Crizotinib],effectiveness on Circulating Tumour Cells (CTCs) under laboratory conditions,[1],marginally more effective than other agents
same,Drug sensitivity as calculated by the assay (interpretation of Drug Response Scores),[1],S++
CN(C)/N=N/c1[nH]cnc1C(N)=O [DTIC],"Drug response score, conc. 1",[2],−0.7928
same,"Drug response score, conc. 2",[2],0.4035
same,"Drug response score, conc. 3",[2],−0.0520
same,"Drug response score, conc. 4",[2],0.1714
C#Cc1cccc(Nc2ncnc3cc(OCCOC)c(OCCOC)cc23)c1 [Erlotinib],effectiveness on Circulating Tumour Cells (CTCs) under laboratory conditions,[1],relatively less effective compared rest of the agents
same,Drug sensitivity as calculated by the assay (interpretation of Drug Response Scores),[1],S+
COc1cc2ncnc(Nc3ccc(F)c(Cl)c3)c2cc1OCCCN1CCOCC1 [Gefitinib],effectiveness on Circulating Tumour Cells (CTCs) under laboratory conditions,[1],relatively less effective compared rest of the agents
same,Drug sensitivity as calculated by the assay (interpretation of Drug Response Scores),[1],S+
CCc1c2c(nc3ccc(OC(=O)N4CCC(N5CCCCC5)CC4)cc13)-c1cc3c(c(=O)n1C2)COC(=O)[C@]3(O)CC [Irina],"Drug response score, conc. 1",[2],−0.0303
same,"Drug response score, conc. 2",[2],−0.1454
same,"Drug response score, conc. 3",[2],0.2672
same,"Drug response score, conc. 4",[2],−0.0433
CCc1c2c(nc3ccc(OC(=O)N4CCC(N5CCCCC5)CC4)cc13)-c1cc3c(c(=O)n1C2)COC(=O)[C@]3(O)CC [Irinotecan],effectiveness on Cancer Cells from tissue sample under laboratory conditions,[3]; GI cancer (Cholangio Carcinoma) tissue sample,S+
same,"Drug sensitivity as calculated by the assay, Tissue","[3]; interpretation based on Drug Response Scores, tissue sample",S+
same,"Drug response score, conc. 1","[3]; tissue sample, conc. 1 per Table 27B: Pem 20, Niv 20, Atez 100, Pacli 0.05, Irino 5, Beva 1 μg/ml, Len 50, 5-FU 250 ng/ml",0.887
same,"Drug response score, conc. 2","[3]; tissue sample, conc. 2 per Table 27B: Pem 40, Niv 40, Atez 200, Pacli 0.1, Irino 10, Beva 2 μg/ml, Len 100, 5-FU 500 ng/ml",0.9135
same,"Drug response score, conc. 3","[3]; tissue sample, conc. 3 per Table 27B: Pem 100, Niv 80, Atez 400, Pacli 0.2, Irino 25, Beva 4 μg/ml, Len 200, 5-FU 1000 ng/ml",0.8742
same,"Drug response score, conc. 4","[3]; tissue sample, conc. 4 per Table 27B: Pem 160, Niv 160, Atez 800, Pacli 1, Irino 50, Beva 8 μg/ml, Len 400, 5-FU 2000 ng/ml",0.8612
same,effectiveness on the cancer cells derived from the tissue sample under laboratory conditions,[2]; osteosarcoma tissue sample,show effectiveness
same,Drug sensitivity as calculated by the assay (interpretation of Drug Response Scores),"[2]; osteosarcoma tissue sample, Table 33",Sensitive (S++)
same,effectiveness on Circulating Tumour Cells under laboratory conditions,[4]; GI cancer (Cholangio Carcinoma) blood sample,S+
same,"Drug response score from blood sample, conc. 1","[4]; conc. 1 of each drug as in Table 27, blood sample, t96h",0.1974
same,"Drug response score from blood sample, conc. 2","[4]; conc. 2 of each drug as in Table 27, blood sample, t96h",0.3469
same,"Drug response score from blood sample, conc. 3","[4]; conc. 3 of each drug as in Table 27, blood sample, t96h",0.6197
same,"Drug response score from blood sample, conc. 4","[4]; conc. 4 of each drug as in Table 27, blood sample, t96h",0.5913
same,"Drug sensitivity as calculated by the assay, Blood","[4]; interpretation based on Drug Response Scores, blood sample",S+
CNC(=O)c1cc(Oc2ccc(NC(=O)Nc3ccc(Cl)c(C(F)(F)F)c3)c(F)c2)ccn1 [Regorafinib],"Drug response score, conc. 1","[5]; conc. 1: Pembro 20 μg/ml, Nivo 20 μg/ml (CTCs + CD45+ cells), Lenva 50 ng/ml, Regor 60 μg/ml (CTCs), t96h",0.9681
same,"Drug response score, conc. 2","[5]; conc. 2: Pembro 40 μg/ml, Nivo 40 μg/ml (CTCs + CD45+ cells), Lenva 100 ng/ml, Regor 80 μg/ml (CTCs), t96h",0.9212
same,"Drug response score, conc. 3","[5]; conc. 3: Pembro 100 μg/ml, Nivo 80 μg/ml (CTCs + CD45+ cells), Lenva 200 ng/ml, Regor 120 μg/ml (CTCs), t96h",0.7424
same,"Drug response score, conc. 4","[5]; conc. 4: Pembro 160 μg/ml, Nivo 160 μg/ml (CTCs + CD45+ cells), Lenva 400 ng/ml, Regor 160 μg/ml (CTCs), t96h",−0.7024
same,effectiveness on Circulating Tumour Cells under laboratory conditions,[5]; rectal cancer CTCs,Sensitive S+
same,Drug sensitivity as calculated by the assay (interpretation of Drug Response Scores),"[5]; rectal cancer CTCs, Table 11",Sensitive (S+)
